Here are results for two molecules from patent US20100004159A1, “SUBSTITUTED IMIDAZOLONE DERIVATIVES, PREPARATIONS AND USES” (GENFIT, priority 2006, published 2010).

As usually defined, the EC50 is the concentration at which the effect is half-maximal. Lower therefore signals greater potency.

The target of one test is T1, hPPARα (Homo sapiens, UniProt Q07869).
T1 construct: DNA fragments amplified by PCR and corresponding to the DEF domains of human PPARα, PPARγ, and PPARδ nuclear receptors; expressed in transfected cells; host or cells: COS-7
T1 sequence (Q07869 239-466 limits assumed): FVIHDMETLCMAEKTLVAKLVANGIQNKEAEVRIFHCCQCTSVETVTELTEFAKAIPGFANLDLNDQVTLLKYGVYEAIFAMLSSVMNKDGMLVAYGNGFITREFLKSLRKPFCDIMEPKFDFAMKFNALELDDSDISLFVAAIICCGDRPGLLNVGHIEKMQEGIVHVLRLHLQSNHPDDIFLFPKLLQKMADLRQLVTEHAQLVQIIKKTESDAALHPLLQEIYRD
Put plainly: Gal4-hPPARα transactivation in COS-7 cells (luciferase). Particulars: for EC50: Gal4-hPPARα chimera, COS-7 cells, 24 hours. It counts as cell-based. As for the experimental part:
The activation of PPARs was evaluated in vitro using a monkey kidney fibroblast line (COS-7) by measuring the transcriptional activity of chimeras made up of the DNA binding domain of the Gal4 transcription factor of yeast and of the binding domain to the ligand of the different PPARs. The compounds were tested at doses of between 0.01 and 100 μM on Gal4-PPARα, γ, and δ chimeras.
COS-7 cells came from ATCC (American type culture collection) and were cultivated in a DMEM medium supplemented with 10% (vol/vol) of fetal calf serum, 100 U/ml of penicillin (Gibco, Paisley, UK) and 2 mM of L-Glutamine (Gibco, Paisley, UK). The cells were incubated at 37° C. under humid atmosphere containing 5% CO2.
The plasmids Gal4(RE)_TkpGL3, pGal4-hPPARα, pGal4-hPPARγ, pGal4-hPPARδ and pGal4-φ have been described in the literature (Raspe E et al., 1999). The constructions pGal4-hPPARα, pGal4-hPPARγ, and pGal4-hPPARδ were obtained by cloning, in the pGal4-φ vector, DNA fragments amplified by PCR and corresponding to the DEF domains of human PPARα, PPARγ, and PPARδ nuclear receptors.
The COS-7 cells in suspension were transfected with 150 ng of DNA per well, with a pGal4-PPAR/Gal4(RE)_TkpGL3 ratio of 1/10, in presence of 10% fetal calf serum. The cells were then plated in 96-well plates (4×10^4 cells/well), then incubated for 24 hours at 37° C. Activation with the test compounds was performed for 24 hours at 37° C. in a medium without serum. At the end of the experiment, the cells were lysed and the luciferase activity was determined using the Steady-Lite™ HTS (Perkin Elmert) or the Steady Glow Luciferase kit (Promega), in accordance with the provider's recommendations.
The compounds according to the invention were tested at doses between 0,01 and 100 μM on the 3 PPAR isoforms. The results obtained are presented in detail under FIG. 1a.

The next test has as its system ApoE2/E2 mouse. Nature of the test: Plasma lipids and cholesterol distribution in dyslipidemic ApoE2/E2 mouse. It counts as in vivo. To be noted: for total cholesterol level / triglyceride level: 7 days per os. As for the experimental part:
The hypolipemic properties of the compounds according to the invention were evaluated in vivo by assaying plasma lipids and by an analysis of the gene expression of PPARs target genes, in the liver after a treatment of the dyslipidemic E2/E2 mice with the compounds according to the invention.
The murine model used is the ApoE2/E2 mouse, a transgenic mouse having human apolipoprotein E isoform E2 (Sullivan P M et al., 1998). In human, this apolipoprotein, a constituent of the low and the very low density lipoproteins (LDL-VLDL), exists in three isoforms E2, E3, and E4. The E2 form has a mutation affecting the amino acid of position 158, which considerably weakens the affinity of this protein for the receptors to LDL., the VLDL clearance is nearly non-existent.
The ApoE2/E2 transgenic mice were kept on a 12 hour/12 hour light/dark cycle at a constant temperature of 20±3° C. After a one week acclimatization period, the mice were weighed and divided into groups of 5 animals selected so as to render uniform the distribution of their body weights and their plasma lipid levels, determined before the experiment. The tested compounds were suspended in carboxymethylcellulose (Sigma C4888) and administered by intra-gastric tube feeding, once a day for 7 days at the chosen dose. The animals had free access to food and water. At the end of the experiment, the animals were anesthetized after a 4 hour fast, a blood sample was taken using anticoagulant (EDTA), then the mice were weighed and euthanized. The plasma was separated by centrifugation at 3000 rotations/minute for 20 minutes. The samples were kept at +4° C.
Plasma lipid concentrations (total cholesterol and triglycerides) were measured by enzymatic assays (bioMerieux-Lyon-France) according to the provider's recommendations.
The different lipid fractions (VLDL, LDL,HDL) of the plasma were separated by gel-filtration chromatography. The concentrations of cholesterol of each fraction were then measured by enzymatic assays (bioMerieux-Lyon-France) according to the provider's recommendations.

Where [1] appears, read: 7-day treatment, 10, 30 and 100 mpk.

Turning to `CCCCC1=NC2(CCCC2)C(=O)N1Cc1ccc(-c2cccc(OC(C)(C)C(=O)O)c2)cc1` [Compound 1, 2-butyl-1-[(3′-((1-carboxy-1,1-dimethylmethyl)oxy)biphenyl-4-yl)methyl]-4-spirocyclopentyl-1H-imidazol-5(4H)-one], the “activation of hPPARα (luciferase activity)” value on hPPARα (COS-7 cells transfected pGal4-hPPAR, 0.01 to 100 μM) is “activate the two PPAR isoforms”. This molecule also yielded an EC50 at hPPARα of 3 µM. In addition, in the test on ApoE2/E2 mouse (25, 50, 100 and 200 mpk), the total cholesterol level entry is given as “remarkable dose-dependently decrease” and the triglyceride level result was “remarkable dose-dependently decrease”.

At hPPARα, `CCCCC1=NC2(CCCCC2)C(=O)N1Cc1ccc(-c2cccc(OC(C)(C)C(=O)O)c2)cc1` [Compound 21, 2-butyl-1-[(3′-((1-carboxy-1,1-dimethylmethyl)oxy)biphenyl-4-yl)methyl]-4-spirocyclohexyl-1H-imidazol-5(4H)-one] displayed a half-maximal effective concentration (EC50) of 0.6 µM. Further, in the test on ApoE2/E2 mouse (setting [1]), the HDL-cholesterol fraction entry was “significant increase”; the “cholesterol in VLDL and LDL fractions” value is “significant decrease”. In the test on ApoE2/E2 mouse (10, 30 or 100 mpk), the total cholesterol level result is given as “remarkable dose-dependently decrease” and the triglyceride level result is on record as “remarkable dose-dependently decrease”.
